Patent US9464064B2, “HCV helicase inhibitors and methods of use thereof” (University of Kansas, priority 2011, dated 2016)

Target: T1, HCV NS3 helicase NS3h_1b(con1) (Hepatitis C virus genotype 1b, UniProt Q9WMX2)
T1 construct: truncated C-terminally His-tagged NS3 proteins lacking the N-terminal protease, called NS3h; His-tag (C); made in house
Assay: MBHA screen of NCI mechanistic set library at 20 μM (percent inhibition, compound interference)
Format: biochemical
Conditions: compounds at 20 μM; for Inh. (%) (Inhibition): calculated from Equation 1
In short: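 Molecular beacon-based DNA unwinding assay; compounds screened at 20 μM in triplicate, with DMSO-only negative and 500 nM dT20 positive controls. Fluorescence (ex 643/em 670 nm) was read before and 30 min after adding ATP to 1 mM. Percent inhibition came from the change relative to DMSO controls; interference from pre-ATP fluorescence versus DMSO controls.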

[1] = MBHA with DNA substrate, assay interference calculated with Equation 2
[2] = assay interference calculated with Equation 2 (fluorescence vs DMSO-only controls before ATP)

T1 sequence (Q9WMX2 1192-1657): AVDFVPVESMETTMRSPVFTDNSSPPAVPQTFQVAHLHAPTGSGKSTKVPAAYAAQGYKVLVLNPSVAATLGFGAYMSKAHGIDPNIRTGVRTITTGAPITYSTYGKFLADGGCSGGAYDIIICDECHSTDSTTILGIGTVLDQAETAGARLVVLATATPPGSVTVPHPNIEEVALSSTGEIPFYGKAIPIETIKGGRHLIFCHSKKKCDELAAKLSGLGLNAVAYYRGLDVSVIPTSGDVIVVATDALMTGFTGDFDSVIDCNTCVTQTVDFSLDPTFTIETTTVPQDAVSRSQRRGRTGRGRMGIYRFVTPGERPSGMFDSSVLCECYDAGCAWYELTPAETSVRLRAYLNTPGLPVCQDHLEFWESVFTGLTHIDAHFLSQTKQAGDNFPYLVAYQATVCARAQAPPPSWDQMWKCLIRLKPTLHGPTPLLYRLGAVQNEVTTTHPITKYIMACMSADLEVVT

C[n+]1cc2cc(O)c(O)cc2c2ccc3cc(O)c(O)cc3c21.Cl.[Cl-].c1ccncc1 [Compound 184403]
Int.* (Ratio) (Interference) [1]: 0.42 Ratio | Inh. (%) (Inhibition) (MBHA with DNA substrate): 27.4%

NC(=S)N/N=C/c1ccc(OC(=O)COc2ccccc2Cl)cn1 [Compound 185056]
Inh. (%) (Inhibition) (MBHA with a DNA substrate): 6.8% | Int.* (Ratio) (Interference) [2]: 0.90 Ratio

Oc1ccc(/C=N/NC(=S)Nc2cccnc2)nc1 [Compound 185065]
Inh. (%) (Inhibition) (MBHA with a DNA substrate): −26.6% | Int.* (Ratio) (Interference) [2]: 1.11 Ratio

Cc1cc(C)c(NC(=O)/C=C/c2ccccc2)c(C)c1 [Compound 191384]
Int.* (Ratio) (Interference) [1]: 1.07 Ratio | Inh. (%) (Inhibition) (MBHA with DNA substrate): −1.8%

Cc1ccc(NC(=O)/C=C/c2ccccc2)c(C)c1 [Compound 191389]
Int.* (Ratio) (Interference) [1]: 1.06 Ratio | Inh. (%) (Inhibition) (MBHA with DNA substrate): −2.3%

Cc1c(Cl)cccc1NC(=O)/C=C/c1ccccc1 [Compound 191392]
Int.* (Ratio) (Interference) [1]: 1.10 Ratio | Inh. (%) (Inhibition) (MBHA with DNA substrate): 2.5%

Cc1cccc(Cl)c1NC(=O)/C=C/c1ccccc1 [Compound 191393]
Inh. (%) (Inhibition) (MBHA with a DNA substrate): −6.3% | Int.* (Ratio) (Interference) [2]: 1.05 Ratio

CC[C@@]1(O)C[C@H](O)c2c(O)c3c(c(O)c2[C@H]1C(=O)OC)C(=O)c1cccc(O)c1C3=O [Compound 196524]
Int.* (Ratio) (Interference) [1]: 1.02 Ratio | Inh. (%) (Inhibition) (MBHA with DNA substrate): 3.3%

O=C1OC(c2ccco2)=N/C1=C\c1ccc(Cl)c(Cl)c1 [Compound 202000]
Inh. (%) (Inhibition) (MBHA with a DNA substrate): −5.7% | Int.* (Ratio) (Interference) [2]: 0.99 Ratio

COc1cc2c(c3oc4cccc(O)c4c(=O)c13)[C@@H]1C=CO[C@@H]1O2 [Compound 204985]
Int.* (Ratio) (Interference) [1]: 1.05 Ratio | Inh. (%) (Inhibition) (MBHA with DNA substrate): 5.4%

CC[C@@]1(O)C[C@H](O[C@H]2C[C@H](N(C)C)[C@H](O[C@H]3C[C@H](O)[C@H](O[C@H]4CCC(=O)[C@H](C)O4)[C@H](C)O3)[C@H](C)O2)c2c(cc3c(c2O)C(=O)c2c(O)cccc2C3=O)[C@@H]1C(=O)OC [Compound 208734]
Int.* (Ratio) (Interference) [1]: 0.56 Ratio | Inh. (%) (Inhibition) (MBHA with DNA substrate): 56.5%

CCOC(=O)C(C)NC(=O)N(C)C12CC3CC(CC(C3)C1)C2 (stereo not drawn) [Compound 208913]
Int.* (Ratio) (Interference) [1]: 1.10 Ratio | Inh. (%) (Inhibition) (MBHA with DNA substrate): 0.9%

CCOC(=O)CNC(=O)NC12CC3CC(CC(C3)C1)C2 [Compound 208914]
Inh. (%) (Inhibition) (MBHA with a DNA substrate): −4.1% | Int.* (Ratio) (Interference) [2]: 1.09 Ratio

COc1ccc(C2C=C(c3ccc4c(c3)OCO4)Oc3c2c(=O)oc2ccccc32)cc1OC (stereo not drawn) [Compound 211489]
Inh. (%) (Inhibition) (MBHA with a DNA substrate): −30.1% | Int.* (Ratio) (Interference) [2]: 0.82 Ratio

CC(C)c1oc(=O)cc2c1[C@@H](O)[C@H]1OC(=O)[C@@]3(C)[C@@H](O)[C@H]4O[C@H]4[C@@]2(C)[C@@H]13 [Compound 211500]
Inh. (%) (Inhibition) (MBHA with a DNA substrate): 10.6% | Int.* (Ratio) (Interference) [2]: 0.89 Ratio

O=c1oc2ccccc2cc1-c1ccc([N+](=O)[O-])cc1 [Compound 215989]
Int.* (Ratio) (Interference) [1]: 0.82 Ratio | Inh. (%) (Inhibition) (MBHA with DNA substrate): 21.9%

C[n+]1ccc(Nc2ccc(NC(=O)c3ccc(Nc4cc[n+](C)c5ccc([N+](=O)[O-])cc45)cc3[N+](=O)[O-])cc2)cc1.Cl [Compound 218439]
Int.* (Ratio) (Interference) [1]: 0.46 Ratio | Inh. (%) (Inhibition) (MBHA with DNA substrate): −8.9%

c1ccc2c(NCCCCCCCCNc3c4ccccc4nc4ccccc34)c3ccccc3nc2c1 [Compound 219734]
Int.* (Ratio) (Interference) [1]: 0.26 Ratio | Inh. (%) (Inhibition) (MBHA with DNA substrate): 41.8%

Cc1[nH]c(=O)[nH]c(=O)c1/C=C/C(=O)NC(CO)CC(C)C (stereo not drawn) [Compound 224117]
Int.* (Ratio) (Interference) [1]: 1.01 Ratio | Inh. (%) (Inhibition) (MBHA with DNA substrate): −2.8%

NC(=O)OCc1c(O)c2c(c(O)c1COC(N)=O)C(=O)C=CC2=O [Compound 224124]
Int.* (Ratio) (Interference) [1]: 0.93 Ratio | Inh. (%) (Inhibition) (MBHA with DNA substrate): 37.7%

O=C(O)CC(NC(=O)CP(=O)(O)O)C(=O)O (stereo not drawn) [Compound 224131]
Int.* (Ratio) (Interference) [1]: 0.86 Ratio | Inh. (%) (Inhibition) (MBHA with DNA substrate): 12.3%

CO[C@H]1C[C@@H]2CC[C@@H](C)[C@@](O)(O2)C(=O)C(=O)N2CCCC[C@H]2C(=O)O[C@H]([C@H](C)C[C@@H]2CC[C@@H](O)[C@H](OC)C2)CC(=O)[C@H](C)/C=C(\C)[C@@H](O)[C@@H](OC)C(=O)[C@H](C)C[C@H](C)/C=C/C=C/C=C/1C [Compound 226080]
Int.* (Ratio) (Interference) [1]: 0.90 Ratio | Inh. (%) (Inhibition) (MBHA with DNA substrate): −1.0%

CSCC(CO)NC(=O)/C=C/c1c(C)[nH]c(=O)[nH]c1=O (stereo not drawn) [Compound 233872]
Int.* (Ratio) (Interference) [1]: 1.00 Ratio | Inh. (%) (Inhibition) (MBHA with DNA substrate): 17.4%

O=C([O-])c1ccc(Nc2c3ccccc3nc3ccccc23)cc1.[Na+] [Compound 235082]
Inh. (%) (Inhibition) (MBHA with a DNA substrate): −6.4% | Int.* (Ratio) (Interference) [2]: 1.02 Ratio

COC1C(O)=C2C(=O)OC(C)(O)/C=C/C=C\C=C/C=C/C(c3ccccc3)NC(=O)/C=C/C=C/C=C/C=C/C2(C)C1O (stereo not drawn) [Compound 236657]
Inh. (%) (Inhibition) (MBHA with a DNA substrate): −19.9% | Int.* (Ratio) (Interference) [2]: 0.91 Ratio

COC1/C=C/OC2(C)Oc3c(C)c(O)c4c(c3C2=O)C(=O)C=C(NC(=O)/C(C)=C\C=C\C(C)C(OC=O)C(C)C(O)C(C)C(OC(C)=O)C1C)C4=O (stereo not drawn) [Compound 239375]
Int.* (Ratio) (Interference) [1]: 0.90 Ratio | Inh. (%) (Inhibition) (MBHA with DNA substrate): −18.3%

Cc1cc(N(CC(C)Br)CC(C)Br)ccc1N=Nc1ccccc1C(=O)O (stereo not drawn) [Compound 240419]
Int.* (Ratio) (Interference) [1]: 0.94 Ratio | Inh. (%) (Inhibition) (MBHA with DNA substrate): −2.7%

CCCC[S+]([O-])CC(CO)NC(=O)/C=C\c1c(C)[nH]c(=O)[nH]c1=O (stereo not drawn) [Compound 241509]
Int.* (Ratio) (Interference) [1]: 1.01 Ratio | Inh. (%) (Inhibition) (MBHA with DNA substrate): −2.4%

COc1cc(O)c(Cc2ccccc2O)c(O)c1C(=O)CCc1ccccc1 [Compound 241906]
Inh. (%) (Inhibition) (MBHA with a DNA substrate): −6.2% | Int.* (Ratio) (Interference) [2]: 0.88 Ratio

CC[C@@]1(O)C[C@H](O[C@H]2C[C@H](N(C)C)[C@H](O[C@H]3C[C@@H]4O[C@H]5CC(=O)[C@H](C)O[C@H]5O[C@@H]4[C@H](C)O3)[C@H](C)O2)c2c(cc3c(c2O)C(=O)c2c(O)ccc(O)c2C3=O)[C@H]1C(=O)OC [Compound 243023]
Int.* (Ratio) (Interference) [1]: 0.46 Ratio | Inh. (%) (Inhibition) (MBHA with DNA substrate): 24.2%

CCS(=O)(=O)Nc1ccc(Nc2c3ccccc3nc3ccccc23)c(OC)c1.CS(=O)(=O)O [Compound 243928]
Int.* (Ratio) (Interference) [1]: 0.87 Ratio | Inh. (%) (Inhibition) (MBHA with DNA substrate): 3.4%

CC(=O)OC[C@H]1O[C@@H](NC(=O)N(CCCl)N=O)[C@H](OC(C)=O)[C@@H](OC(C)=O)[C@@H]1OC(C)=O [Compound 245432]
Int.* (Ratio) (Interference) [1]: 1.06 Ratio | Inh. (%) (Inhibition) (MBHA with DNA substrate): 37.4%

COc1cc(NS(C)(=O)=O)ccc1Nc1c2ccccc2nc2ccccc12 [Compound 249992]
Int.* (Ratio) (Interference) [1]: 1.08 Ratio | Inh. (%) (Inhibition) (MBHA with DNA substrate): 3.0%

CNC(=O)ON(C(C)=O)C(=O)NC [Compound 253272]
Int.* (Ratio) (Interference) [1]: 0.97 Ratio | Inh. (%) (Inhibition) (MBHA with DNA substrate): 5.5%

O=C([CH-]C(=O)C(F)(F)F)c1ccccc1.O=C([CH-]C(=O)C(F)(F)F)c1ccccc1.O=C([CH-]C(=O)C(F)(F)F)c1ccccc1.O=C([CH-]C(=O)C(F)(F)F)c1ccccc1.[Eu+3].c1ccncc1 [Compound 253995]
Int.* (Ratio) (Interference) [1]: 0.78 Ratio | Inh. (%) (Inhibition) (MBHA with DNA substrate): 2.4%

CO[C@H]1/C=C\C=C(/C)C(=O)NC2=CC(=O)C(N)=C(C[C@@H](C)C[C@H](OC)[C@H](O)[C@@H](C)/C=C(\C)[C@@H]1OC(N)=O)C2=O [Compound 255109]
Int.* (Ratio) (Interference) [1]: 0.77 Ratio | Inh. (%) (Inhibition) (MBHA with DNA substrate): 31.7%
